Source: article PMC5908784, “Extracellular loops 2 and 3 of the calcitonin receptor selectively modify agonist binding and efficacy” (Biochemical Pharmacology, 2018)
Numbering of substitutions follows the chain as printed. Where a SMILES comes first, the peptide text is derived from it. Bridges are numbered along the chain shown (N, C = ends).

Columns and labels:
Test in all cases: cAMP accumulation
Assay type in all cases: cell-based
Conditions in all cases: mean ± S.E.M.; for Emax: cAMP maximal response, SEM; for EC50: cAMP, CV1-FlpIn cells, 30 min, IBMX
hCTR L368A = biological target: T1, hCTR L368A (Homo sapiens, UniProt P30988, L368A)
T1 construct: c-Myc (N); expressed in transfected cells
T1 sequence (P30988 25-474 L368A): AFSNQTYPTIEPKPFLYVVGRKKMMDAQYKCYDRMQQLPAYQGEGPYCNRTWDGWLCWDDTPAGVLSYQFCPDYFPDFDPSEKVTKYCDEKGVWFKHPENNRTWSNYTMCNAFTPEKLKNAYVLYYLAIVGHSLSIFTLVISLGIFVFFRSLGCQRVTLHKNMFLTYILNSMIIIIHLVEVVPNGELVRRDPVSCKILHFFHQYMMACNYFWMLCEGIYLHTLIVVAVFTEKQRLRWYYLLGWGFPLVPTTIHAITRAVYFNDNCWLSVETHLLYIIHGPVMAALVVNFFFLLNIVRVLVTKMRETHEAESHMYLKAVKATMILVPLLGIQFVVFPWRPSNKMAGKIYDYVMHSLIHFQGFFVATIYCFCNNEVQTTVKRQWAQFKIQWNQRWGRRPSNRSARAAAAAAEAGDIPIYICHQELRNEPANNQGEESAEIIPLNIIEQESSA
In short: (§1)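 30 min ligand stimulation with IBMX present; cells seeded overnight beforehand. Ethanol extract, dried at RT.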

hCTR L298A = biological target: T2, hCTR L298A (Homo sapiens, UniProt P30988, L298A)
T2 construct: c-Myc (N); expressed in transfected cells
T2 sequence (P30988 25-474 L298A): T1 sequence (P30988 25-474 L368A) with L274A, A344L
In short: as §1

hCTR H296A = biological target: T3, hCTR H296A (Homo sapiens, UniProt P30988, H296A)
T3 construct: c-Myc (N); expressed in transfected cells
T3 sequence (P30988 25-474 H296A): T1 sequence (P30988 25-474 L368A) with H272A, A344L
In short: as §1

hCTR F356A = biological target: T4, hCTR F356A (Homo sapiens, UniProt P30988, F356A)
T4 construct: c-Myc (N); expressed in transfected cells
T4 sequence (P30988 25-474 F356A): T1 sequence (P30988 25-474 L368A) with F332A, A344L
In short: as §1

hCTR V293A = biological target: T5, hCTR V293A (Homo sapiens, UniProt P30988, V293A)
T5 construct: c-Myc (N); expressed in transfected cells
T5 sequence (P30988 25-474 V293A): T1 sequence (P30988 25-474 L368A) with V269A, A344L
In short: as §1

Row | EC50 (hCTR L368A) | EC50 (hCTR L298A) | EC50 (hCTR H296A) | EC50 (hCTR F356A) | EC50 (hCTR V293A) | SMILES | Emax (hCTR L368A) | Emax (hCTR L298A) | Emax (hCTR H296A) | Emax (hCTR F356A) | Emax (hCTR V293A)
1 | – | – | – | – | – | CC[C@H](C)[C@H](NC(=O)[C@H](C)NC(=O)[C@@H](NC(=O)[C@H](CCC(N)=O)NC(=O)[C@@H]1CCCN1C(=O)[C@H](Cc1ccccc1)NC(=O)[C@@H](NC(=O)[C@H](Cc1c[nH]cn1)NC(=O)[C@H](Cc1ccccc1)NC(=O)[C@H](CCCCN)NC(=O)[C@H](CC(N)=O)NC(=O)[C@H](Cc1ccccc1)NC(=O)[C@H](CC(=O)O)NC(=O)[C@H](CCC(N)=O)NC(=O)[C@@H](NC(=O)[C@H](Cc1ccc(O)cc1)NC(=O)[C@@H](NC(=O)CNC(=O)[C@H](CC(C)C)NC(=O)[C@H](CCSC)NC(=O)[C@@H]1CSSC[C@H](N)C(=O)NCC(=O)N[C@@H](CC(N)=O)C(=O)N[C@@H](CC(C)C)C(=O)N[C@@H](CO)C(=O)N[C@@H]([C@@H](C)O)C(=O)N1)[C@@H](C)O)[C@@H](C)O)[C@@H](C)O)[C@@H](C)O)C(=O)NCC(=O)N[C@H](C(=O)NCC(=O)N[C@@H](C)C(=O)N1CCC[C@H]1C(N)=O)C(C)C [hCT] | 70 ± 4% | 103 ± 6% | 87 ± 4% | 131 ± 8% | 123 ± 8%
2 | 11.5 nM | 33.9 nM | 14.1 nM | 66.1 nM | 8.71 nM | CC(C)C[C@H](NC(=O)CNC(=O)[C@H](C)NC(=O)[C@H](CC(C)C)NC(=O)[C@H](CCCNC(=N)N)NC(=O)[C@H](Cc1cnc[nH]1)NC(=O)[C@@H](NC(=O)[C@@H](NC(=O)[C@@H]1CSSC[C@H](NC(=O)[C@H](C)N)C(=O)N[C@@H](CC(=O)O)C(=O)N[C@@H]([C@@H](C)O)C(=O)N[C@@H](C)C(=O)N[C@@H]([C@@H](C)O)C(=O)N1)C(C)C)[C@@H](C)O)C(=O)N[C@@H](CC(C)C)C(=O)N[C@@H](CO)C(=O)N[C@@H](CCCNC(=N)N)C(=O)N[C@@H](CO)C(=O)NCC(=O)NCC(=O)N[C@H](C(=O)N[C@H](C(=O)N[C@@H](CCCCN)C(=O)N[C@@H](CC(N)=O)C(=O)N[C@@H](CC(N)=O)C(=O)N[C@@H](Cc1ccccc1)C(=O)N[C@H](C(=O)N1CCC[C@H]1C(=O)N[C@H](C(=O)N[C@@H](CC(N)=O)C(=O)N[C@H](C(=O)NCC(=O)N[C@@H](CO)C(=O)N[C@@H](CCCCN)C(=O)N[C@@H](C)C(=O)N[C@@H](Cc1ccccc1)C(N)=O)C(C)C)[C@@H](C)O)C(C)C)C(C)C)C(C)C [hαCGRP] | 78 ± 12% | 109 ± 17% | 106 ± 18% | 128 ± 10% | 153 ± 17%
3 | 0.0316 nM | 0.0631 nM | 0.0316 nM | 0.0316 nM | 0.0501 nM | CSCC[C@H](NC(=O)CNC(=O)[C@H](CO)NC(=O)[C@H](Cc1ccccc1)NC(=O)[C@H](CCCNC(=N)N)NC(=O)[C@H](Cc1c[nH]cn1)NC(=O)[C@H](Cc1ccccc1)NC(=O)[C@H](CC(N)=O)NC(=O)[C@H](CC(N)=O)NC(=O)[C@H](CC(C)C)NC(=O)[C@H](CC(N)=O)NC(=O)[C@H](CCCNC(=N)N)NC(=O)[C@H](Cc1c[nH]c2ccccc12)NC(=O)[C@H](Cc1ccc(O)cc1)NC(=O)[C@H](C)NC(=O)[C@H](CO)NC(=O)[C@H](CC(C)C)NC(=O)[C@@H](NC(=O)[C@@H]1CSSC[C@H](N)C(=O)N[C@@H](CO)C(=O)N[C@@H](CC(N)=O)C(=O)N[C@@H](CC(C)C)C(=O)N[C@@H](CO)C(=O)N[C@@H]([C@@H](C)O)C(=O)N1)C(C)C)C(=O)NCC(=O)N[C@@H](Cc1ccccc1)C(=O)NCC(=O)N1CCC[C@H]1C(=O)N[C@@H](CCC(=O)O)C(=O)N[C@H](C(=O)N1CCC[C@H]1C(N)=O)[C@@H](C)O [pCT] (H-CSNLSTCVLSAYWRNLNNFHRFSGMGFGPETP-NH2; disulfide 1-7) | 96 ± 6% | 118 ± 7% | 96 ± 8% | 100 ± 2% | 107 ± 5%
4 | – | – | – | – | – | CC(C)C[C@H](NC(=O)[C@H](CC(N)=O)NC(=O)[C@H](CC(N)=O)NC(=O)[C@H](CO)NC(=O)[C@H](CO)NC(=O)[C@H](CCCNC(=N)N)NC(=O)[C@@H](NC(=O)[C@H](CC(C)C)NC(=O)[C@H](Cc1ccccc1)NC(=O)[C@H](CC(N)=O)NC(=O)[C@H](C)NC(=O)[C@H](CC(C)C)NC(=O)[C@H](CCCNC(=N)N)NC(=O)[C@H](CCC(N)=O)NC(=O)[C@@H](NC(=O)[C@H](C)NC(=O)[C@@H]1CSSC[C@H](NC(=O)[C@@H](N)CCCCN)C(=O)N[C@@H](CC(N)=O)C(=O)N[C@@H]([C@@H](C)O)C(=O)N[C@@H](C)C(=O)N[C@@H]([C@@H](C)O)C(=O)N1)[C@@H](C)O)C(C)C)C(=O)NCC(=O)N1CCC[C@H]1C(=O)N[C@H](C(=O)N[C@@H](CC(C)C)C(=O)N1CCC[C@H]1C(=O)N1CCC[C@H]1C(=O)N[C@H](C(=O)N[C@@H](CC(N)=O)C(=O)N[C@H](C(=O)NCC(=O)N[C@@H](CO)C(=O)N[C@@H](CC(N)=O)C(=O)N[C@H](C(=O)N[C@@H](Cc1ccc(O)cc1)C(N)=O)[C@@H](C)O)C(C)C)[C@@H](C)O)C(C)C [rAmy] | 95 ± 12% | 117 ± 13% | 107 ± 18% | 126 ± 15% | 91 ± 10%
5 | – | – | – | – | – | CC(C)C[C@H](NC(=O)[C@H](CCCCN)NC(=O)CNC(=O)[C@H](CC(C)C)NC(=O)[C@@H](NC(=O)[C@@H]1CSSC[C@H](N)C(=O)N[C@@H](CO)C(=O)N[C@@H](CC(N)=O)C(=O)N[C@@H](CC(C)C)C(=O)N[C@@H](CO)C(=O)N[C@@H]([C@@H](C)O)C(=O)N1)C(C)C)C(=O)N[C@@H](CO)C(=O)N[C@@H](CCC(N)=O)C(=O)N[C@@H](CCC(=O)O)C(=O)N[C@@H](CC(C)C)C(=O)N[C@@H](Cc1c[nH]cn1)C(=O)N[C@@H](CCCCN)C(=O)N[C@@H](CC(C)C)C(=O)N[C@@H](CCC(N)=O)C(=O)N[C@H](C(=O)N[C@@H](Cc1ccc(O)cc1)C(=O)N1CCC[C@H]1C(=O)N[C@@H](CCCNC(=N)N)C(=O)N[C@H](C(=O)N[C@@H](CC(N)=O)C(=O)N[C@H](C(=O)NCC(=O)N[C@@H](CO)C(=O)NCC(=O)N[C@H](C(=O)N1CCC[C@H]1C(N)=O)[C@@H](C)O)[C@@H](C)O)[C@@H](C)O)[C@@H](C)O [sCT] | 75 ± 7% | 112 ± 9% | 86 ± 5% | 100 ± 1% | 112 ± 11%
